Several values for one entry are separate records, joined by “and”; a condition that tells them apart may be missing. Equal entries are not always repeated.
Assays:
Rattus norvegicus = details: oral
Mus musculus = details: oral
[1] = short-term, duration: 28 days, M, CD, Body Weight: 10% decrease in final body weight
[2] = short-term, duration: 28 days, M, CD, Hepatic: 34% decrease in serum triglyceride levels, minimal hepatocellular hypertrophy at ?[…] / minimal focal necrosis at 29 mg/kg/day
[3] = subchronic, duration: 90 days, M, CD, Body Weight: 33% reduction in final mean body weight
[4] = developmental, duration: 17 days, F, CD1, Developmental: 323% increased prenatal loss, 16.7% decreased live fetuses, 24.3% decreased neonatal survival
[5] = developmental, duration: 17 days, F, Developmental: Significantly reduced pup survival (46%) from birth to weaning
[6] = reproduction developmental, duration: 17 days, M, CD1, Body Weight: 32% reduced weight gain during pregnancy
[7] = short-term, duration: 14 days, M, CD1, 6-12% decreased in body weight gain
[8] = short-term, duration: 15 days, F, Body Weight: Weight loss (~5%)
[9] = short-term, duration: 15 days, F, Immunotoxicological: Reduced sRBC-specific response to IgM antibody titers
[10] = short-term, duration: 21 days, M, ICR, Body Weight: 17% decrease in weight gain
[11] = short-term, duration: 21 days, M, ICR, Hepatic: 27% increase in relative liver weight at ?0.5 mg/kg/day / increases in ALT at ?[…] / hepatocytomegaly at 18 mg/kg/day / necrosis…
[12] = short-term, duration: 28 days, M, CD1, Hepatic: Mild hepatocellular hypertrophy at ?0.29, moderate to severe hypertrophy and single cell necrosis at ?0.96 mg/kg/day / decreased …

O=C([O-])C(F)(F)C(F)(F)C(F)(F)C(F)(F)C(F)(F)C(F)(F)C(F)(F)F.[NH4+] [Ammonium perfluorooctanoate]
NOAEL (Rattus norvegicus; short-term, duration: 14 days, M, Hepatic: Decreased serum cholesterol levels at ?0.3 mg/kg/day): 30 mg/kg-day
NOAEL (Rattus norvegicus; short-term, duration: 14 days, M, Sprague-Dawley, Hepatic: 2-fold increased mean relative liver weight at 50 mg/kg/day + Immunotoxicological: No alterations in spleen weight or splenocyte …): 50 mg/kg-day
LOAEL (Rattus norvegicus; short-term, duration: 28 days, F, albino, Death: before end of 1st week of study): 1130 mg/kg-day
NOAEL (Rattus norvegicus; short-term, duration: 28 days, M, CD): 29 mg/kg-day
NOAEL (Rattus norvegicus; short-term, duration: 28 days, M, CD, Body Weight: 30 mg/kg/day: 11% reduction in final body weight / 100 mg/kg/day: 33% reduction in final body weight): 10 mg/kg-day
LOAEL (Rattus norvegicus; [1]): 9.6 mg/kg-day
NOAEL (Rattus norvegicus; [1]): 0.96 mg/kg-day
LOAEL (Rattus norvegicus; [2]): 29 mg/kg-day
NOAEL (Rattus norvegicus; [2]): 0.29 mg/kg-day
NOAEL (Rattus norvegicus; short-term, duration: 28 days, M, CD, Hepatic: Hepatocyte hypertrophy): 3 mg/kg-day
LOAEL (Rattus norvegicus; short-term, duration: 28 days, M, Sprague-Dawley, Hepatic: Increased liver weight (43% on day 29), decreased serum cholesterol (39% on day 29) and triglyceride (73% on day 29), …): 18 mg/kg-day
LOAEL (Rattus norvegicus; short-term, duration: 28 days, M, albino, Death: 5/5 males and 5/5 females died): 1000 mg/kg-day
NOAEL (Rattus norvegicus; subchronic, duration: 13 weeks, M, CD, Hepatic: Minimal to moderate hepatocellular hypertrophy at ?0.64 mg/kg/day + Neurological: No histological alterations + Reproductive: No …): 6.5 mg/kg-day
NOAEL (Rattus norvegicus; subchronic, duration: 90 days, F, CD): 100 mg/kg-day
NOAEL (Rattus norvegicus; subchronic, duration: 90 days, F, CD, Neurological: No histological alterations): 110 mg/kg-day
LOAEL (Rattus norvegicus; [3]): 100 mg/kg-day
NOAEL (Rattus norvegicus; [3]): 30 mg/kg-day
NOAEL (Rattus norvegicus; subchronic, duration: 90 days, M, CD, Hepatic: Hepatocyte hypertrophy / 50% increase in absolute liver weight + Reproductive: No histological alterations): 100 mg/kg-day
LOAEL (Mus musculus; developmental, duration: 1 days, M, CD1, Developmental: Decreased spontaneous activity and altered response to cholinergic stimulant): 0.58 mg/kg-day
LOAEL (Mus musculus; developmental, duration: 10 days, F, CD1, Developmental: Altered mammary gland development in female pups / reduced pup weight on PND 20): 5 mg/kg-day
LOAEL (Mus musculus; developmental, duration: 10 days, F, CD1, Developmental: Delayed mammary gland development (30-60%) in female pups on PNDs 1-10 + Reproductive: Immature mammary gland morphology in …): 5 mg/kg-day
NOAEL (Mus musculus; developmental, duration: 10 days, F, CD1, Hepatic: 40-120% increased relative liver weight in lactating dams on PNDs 1-10): 5 mg/kg-day
LOAEL (Mus musculus; developmental, duration: 11 days, F, CD1, Developmental: Delayed mammary gland development (31-47%) in female pups on PNDs 22-32 and at 18 months): 5 mg/kg-day
LOAEL (Mus musculus; developmental, duration: 11 days, F, CD1, Developmental: Reduced pup body weight at weaning, 43% in males and 35% in females): 5 mg/kg-day
NOAEL (Mus musculus; developmental, duration: 12 days, F): 1 mg/kg-day
LOAEL (Mus musculus; developmental, duration: 12 days, F, Developmental: 7-10% decrease in litter weight on PND 2): 0.5 mg/kg-day
NOAEL (Mus musculus; developmental, duration: 17 days, F): 10 mg/kg-day
LOAEL (Mus musculus; developmental, duration: 17 days, F, CD1, Developmental: 3 mg/kg/day: reduced weight gain through lactation (14.8% in males and 20.6% in females) / delayed eye opening and hair …): 3 mg/kg-day and 5 mg/kg-day
LOAEL (Mus musculus; [4]): 5 mg/kg-day
NOAEL (Mus musculus; [4]): 1 mg/kg-day
LOAEL (Mus musculus; developmental, duration: 17 days, F, CD1, Developmental: Decreased birth weight (approximately 8%) and body weight at weaning (24%)): 5 mg/kg-day
LOAEL (Mus musculus; developmental, duration: 17 days, F, CD1, Developmental: Delayed mammary gland development in female pups on PNDs 22-63 + Reproductive: Delayed mammary gland lactational …): 0.0024 mg/kg-day
LOAEL (Mus musculus; developmental, duration: 17 days, F, CD1, Developmental: Delayed mammary gland development in female pups on PNDs 22-63 and at 18 months): 3 mg/kg-day
LOAEL (Mus musculus; developmental, duration: 17 days, F, CD1, Developmental: Increased prenatal loss / 40% reduced neonatal body weight on PNDs 5 and 10): 5 mg/kg-day
LOAEL (Mus musculus; developmental, duration: 17 days, F, CD1, Reproductive: Delayed mammary gland differentiation): 5 mg/kg-day
LOAEL (Mus musculus; [5]): 0.6 mg/kg-day
NOAEL (Mus musculus; [5]): 0.3 mg/kg-day
NOAEL (Mus musculus; reproduction developmental, duration: 11 days, F, CD1, Body Weight: No alterations in dams dosed on GDs 15-17 + Hepatic: Increase in relative liver weight in dams dosed on GDs 13-17, 10-17, or 7-…): 20 mg/kg-day
NOAEL (Mus musculus; reproduction developmental, duration: 17 days, F, CD1, Hepatic: Significant increase in relative and absolute maternal liver weight on PND 22 at ?3 mg/kg/day): 5 mg/kg-day
LOAEL (Mus musculus; reproduction developmental, duration: 17 days, F, CD1, Reproductive: Delayed mammary gland lactational differentiation in dams on PND 22): 1 mg/kg-day
NOAEL (Mus musculus; reproduction developmental, duration: 17 days, F, Hepatic: Increased absolute and relative liver weight of dams on PND 22 at ?1 mg/kg/day): 20 mg/kg-day
NOAEL (Mus musculus; reproduction developmental, duration: 17 days, M, CD1, 38% increase in absolute liver weight at ?1 mg/kg/day): 1 mg/kg-day
LOAEL (Mus musculus; [6]): 10 mg/kg-day
NOAEL (Mus musculus; [6]): 5 mg/kg-day
NOAEL (Mus musculus; short-term, duration: 14 days, M/F, CD1, Hepatic: 123-155% increase in absolute liver weight in 14 days at ?5.3 mg/kg/day): 537 mg/kg-day
LOAEL (Mus musculus; [7]): 10 mg/kg-day
NOAEL (Mus musculus; [7]): 3 mg/kg-day
NOAEL (Mus musculus; short-term, duration: 14 days, M, CD1, Hepatic: Decreased serum cholesterol levels at ?0.3 mg/kg/day): 30 mg/kg-day
LOAEL (Mus musculus; [8]): 15 mg/kg-day
NOAEL (Mus musculus; [8]): 7.5 mg/kg-day
LOAEL (Mus musculus; [9]): 3.75 mg/kg-day
NOAEL (Mus musculus; [9]): 1.88 mg/kg-day
NOAEL (Mus musculus; short-term, duration: 21 days, M/F, CD1, Hepatic: 39-41% increase in absolute liver weight at ?5.4 mg/kg/day): 5.4 mg/kg-day
NOAEL (Mus musculus; short-term, duration: 21 days, M, ICR): 47 mg/kg-day
LOAEL (Mus musculus; [10]): 18 mg/kg-day
NOAEL (Mus musculus; [10]): 2.6 mg/kg-day
LOAEL (Mus musculus; [11]): 47 mg/kg-day
NOAEL (Mus musculus; [11]): 18 mg/kg-day
LOAEL (Mus musculus; short-term, duration: 28 days, F, CD1, 5/5 died before 4th week of study): 58 mg/kg-day
LOAEL (Mus musculus; short-term, duration: 28 days, F, CD1, Body Weight: Males: final body weight 20% lower than controls / females: final body weight 25% lower than controls): 5.8 mg/kg-day
NOAEL (Mus musculus; short-term, duration: 28 days, M/F, CD1, Hepatic: 3-fold or greater increased absolute and relative liver weight and hepatocellular hypertrophy at ?5.4 mg/kg/day): 18 mg/kg-day
LOAEL (Mus musculus; short-term, duration: 28 days, M, CD1, Body Weight: Males: final body weight 20% lower than controls / females: final body weight 25% lower than controls): 5.4 mg/kg-day
LOAEL (Mus musculus; short-term, duration: 28 days, M, CD1, Body Weight: Weight loss (86% of controls)): 9.6 mg/kg-day
NOAEL (Mus musculus; short-term, duration: 28 days, M, CD1, Body Weight: Weight loss (86% of controls) + Immunotoxicological: Decreased response to sRBC, decreased number of splenic and thymic …): 0.96 mg/kg-day
LOAEL (Mus musculus; short-term, duration: 28 days, M, CD1, Death: 4/5 died before end of 4th week): 54 mg/kg-day
LOAEL (Mus musculus; short-term, duration: 28 days, M, CD1, Death: 5/5 died before 2nd week of study): 180 mg/kg-day
LOAEL (Mus musculus; [12]): 0.96 mg/kg-day
NOAEL (Mus musculus; [12]): 0.29 mg/kg-day
LOAEL (Mus musculus; short-term, duration: 28 days, M, CD1, Immunotoxicological: Decreased response to sRBC, decreased number of splenic and thymic lymphocytes): 9.6 mg/kg-day

— EPA's ToxValDB 9.5
